In patent publication US11655254B2, “Substituted piperazines as BTK inhibitors” (HUTCHISON MEDIPHARMA LIMITED, priority 2020, dated 2023):

Experiments:
[1] = target: Phosphorylated BTK in Ramos cells (Homo sapiens (Human), UniProt Q06187); assay: Determination of phosphorylated BTK in Ramos cells (BTK phospho-Y223 HTRF); type: cell-based; conditions: Ramos cells stimulated with immunoglobulin M 10 μg/mL and hydrogen peroxide 3.3 mM, 10 minutes
Protocol: Ramos cells were starved in PRMI 1640 medium with 1% FBS for 2 hours. The starved Ramos cells were diluted with Hank's balanced salt solution to 5.0×10^6 cells/ml, seeded in a 96-well plate with 20 μL/well (1.0×10^5 cells/well), and cultured in a 5% CO2, 37° C. cell incubator. […]
The 384 well plate incubated overnight in the constant temperature incubator was taken out to detect the luminescence signal using the Envision microwell plate reader at the […]. The reading value at 665 nm/615 nm of each well multiplied by 10^4 was used as the signal value of each well.
The average signal value of the wells supplemented with the mixed solution of human immunoglobulin M (final concentration was 10 μg/mL) and hydrogen peroxide (final concentration was 3.3 mM) without the test compound was regarded as the high value, and the average signal value of the wells without immunoglobulin M stimulation and without the test compound was regarded as the low value. According to the signal value in each well, the inhibition ratio (%) of each concentration of compounds was calculated, and the 205 model in XL-Fit 5.3 software (ID Business Solutions Limited) was used to obtain an IC50 value.
The inhibition ratio is calculated as follows: inhibition ratio (%)=100%−{(treating well for the test compound−negative control treating well)/(control treating well for anti-human immunoglobulin M−negative control treating well)}×100%, wherein, […]

[2] = system: B cell activation in mice whole blood (BTK target); assay: In vivo inhibitory effect on BTK target: anti-IgD antibody-induced B cell activation in mice whole blood after oral dosing; parameters: species or system mouse; conditions: 20 mg/kg oral gavage, single administration, 16 h
Text: Objects: B cells in mice whole blood were induced and activated by the anti-IgD antibody, and the inhibitory effect of the compound of the present invention on B cell activation in vivo was studied, so as to determine the inhibitory effect of the compound of the present invention on the BTK target in vivo.
Methods: C57BL/6 mice (female, 18-20 g, purchased from Shanghai Lingchang Biotechnology Co., Ltd.) were grouped according to Table 1.
In addition, the blood of mice in the drug-treated group was centrifuged to separate plasma for blood concentration analysis.
Calculation for Inhibition Ratio: Inhibition ratio=(percentage of B cell activation ratio in anti-IgD antibody-induced vehicle group-percentage of B cell activation ratio in drug-treated group)/(percentage of B cell activation ratio in anti-IgD antibody-induced vehicle group-percentage of B cell activation ratio in vehicle control group)×100%
All data are represented by mean±standard error. For the comparison between each drug-treated group and the anti-IgD antibody-induced vehicle group, p value was calculated by Graphpad Prism using one-way ANOVA analysis of variance and Dunnett's test, and for the comparison between each drug-treated group, p value was calculated by using unpaired t test.

[3] = Drug concentration in plasma of mice of the B cell activation study; type: in vivo; conditions: C57BL/6, plasma; mouse, 20 mg/kg oral, 16 h after administration
Protocol: The animals of each group were administered, then were placed in CO2 for anesthesia at designated time points, blood samples were taken from […] via retro-orbital bleeding, and heparin was used for anticoagulation; 90 μL of whole blood was taken from mice of each group, and added to a 96 well culture plate, and anti-mouse IgD antibody (BIO-RAD, Cat #MCA4693) was added to each well to a final concentration of 0.01 μg/μL (respectively for each drug-treated group and anti-IgD antibody-inducted vehicle group); in addition, 90 μL of whole blood of mice in the vehicle group was taken and added to the 96-well culture plate, and PBS (phosphate buffer, GIBCO, Cat # C20012500BT) was added to each well to a final concentration of 0.01 μg/μL (namely, the vehicle control group); Each group was mixed well and incubated in a 37° C./5% CO2 incubator for 4 hours. In addition, the blood of mice in the drug-treated group was centrifuged to separate plasma for blood concentration analysis.

[4] = Stability test in liver microsomes (rat); type: in vitro ADME; conditions: rat liver microsomes 0.5 mg/mL, compound 1 μM, 37° C.
Protocol: The test compound stock solution was diluted with an organic solvent (usually a mixture of acetonitrile, methanol and water with various ratios, depending on the solubility of the compound, if necessary, 1 N hydrochloric acid or 1 N sodium hydroxide would be added to facilitate solubilization) to the 0.1 mM (the final concentration of the compound in the reaction system was 1 μM) and the concentration percentage of the organic solvents in the incubation system no more than 1% (wherein the percentage of DMSO was required to be no more than 0.1%). An appropriate amount of 100 mM NADP, 500 mM G-6-P and 100 Unit/mL G-6-PDH were mixed and diluted with ultrapure water (the final system contains 1 mM NADP, 5 mM G-6-P and 1 Unit/mL G-6-PDH), pre-incubated in a 37° C. water bath for 10 minutes and then placed on ice for use as a NADPH regeneration solution. 20 mg/mL liver microsomes solution and 200 mM phosphate buffer were mixed, and diluted with ultrapure water to give a liver microsomes solution containing 2.5 mg/mL liver microsomes (the final concentration of the reaction system is 0.5 mg/mL) and 50 mM phosphate buffer. […]
The percentage of the remaining compound after 30 minutes of incubation comparing with that in the 0-minute sample was calculated using the peak area ratio of the compound to the internal standard as an indicator, to evaluate the metabolic stability of the compound.

[5] = system: CIA (collagen induced arthritis) rats; assay: Rat arthritis model induced by type II collagen (CIA); type: in vivo; conditions: compared with vehicle control group
Protocol: An appropriate amount of bovine type II collagen (CII, Chondrex (Redmond, Wash., USA), Cat #20021) was weighed and dissolved in 0.1 mole of acetic acid (SPGC Sinopharm Chemical Reagent Co., Ltd (Shanghai, P.R. China), Cat #: 10000218.), which was formulated into a solution with a concentration of 6 mg/mL, stirred at 4° C. overnight, and added with an equal volume of Freund's incomplete adjuvant (Sigma-Aldrich.(St. Louis, Mo., USA), Cat #: SLBW0366.), fully emulsified to prepare an emulsion with a CII concentration of 3 mg/mL.
Female Lewis rats were purchased from Beijing Vital River Laboratory Animal Technology Co., Ltd. (certificate number 20200928Aazz0619000579, initial body weight of 110-130 grams), and 6 rats were randomly selected as a normal group; and all of the remaining rats were immunized. In the first immunization on day 0, the rats except those in the normal group were anesthetized with isoflurane (Hebei Yipin Pharmaceutical Co., Ltd., Lot: C002170601.), and then disinfected with 75% alcohol, and 0.2 mL of emulsion was injected intradermally at the base of the tail thereof. A second challenge was carried out on day 7, and 0.2 mL of emulsion was intradermally injected using the same method. Once the animals developed symptoms on day 10, the incidence conditions thereof were closely monitored.
After grouping, the normal group was not administered, and the rats in the other groups were administered with the control vehicle, 0.25 mg/kg and 4 mg/kg of the reference GDC-0853, and each dose of compound 1 orally once a day until the end of the experiment.
The paw volume was measured on day 10 after immunization, and the left and right hind paw volumes (V) were measured every day after the paw volume increase was detected.
The arthrosis paw volumes of the left and right hind limbs of each animal were measured, and the average paw volume (APV) was calculated according to the following formula: Average paw volume APV=(Vleft+Vright)/2
The average arthrosis paw volume of each animal before administration was used as the baseline (or considered 100% inhibition of inflammation). […]
The area under the curve (AUC) of the average paw volume swelling is the area under the curve of the arthrosis score swelling calculated by the trapezoid method, and the calculation formula is: AUCAPS=1/2×(APSd1+APSd2)×(d2−d1)+1/2×(APSd2+APSd3)×(d3−d2)+ . . . +1/2×(APSdn+APSd(n-1))×(dn−dn-1). […]
ED50 is calculated by XLfit software according to the AUC inhibition ratio of the area under the curve of the average paw volume swelling. […]

Sequence of Phosphorylated BTK in Ramos cells (Q06187 whole entry): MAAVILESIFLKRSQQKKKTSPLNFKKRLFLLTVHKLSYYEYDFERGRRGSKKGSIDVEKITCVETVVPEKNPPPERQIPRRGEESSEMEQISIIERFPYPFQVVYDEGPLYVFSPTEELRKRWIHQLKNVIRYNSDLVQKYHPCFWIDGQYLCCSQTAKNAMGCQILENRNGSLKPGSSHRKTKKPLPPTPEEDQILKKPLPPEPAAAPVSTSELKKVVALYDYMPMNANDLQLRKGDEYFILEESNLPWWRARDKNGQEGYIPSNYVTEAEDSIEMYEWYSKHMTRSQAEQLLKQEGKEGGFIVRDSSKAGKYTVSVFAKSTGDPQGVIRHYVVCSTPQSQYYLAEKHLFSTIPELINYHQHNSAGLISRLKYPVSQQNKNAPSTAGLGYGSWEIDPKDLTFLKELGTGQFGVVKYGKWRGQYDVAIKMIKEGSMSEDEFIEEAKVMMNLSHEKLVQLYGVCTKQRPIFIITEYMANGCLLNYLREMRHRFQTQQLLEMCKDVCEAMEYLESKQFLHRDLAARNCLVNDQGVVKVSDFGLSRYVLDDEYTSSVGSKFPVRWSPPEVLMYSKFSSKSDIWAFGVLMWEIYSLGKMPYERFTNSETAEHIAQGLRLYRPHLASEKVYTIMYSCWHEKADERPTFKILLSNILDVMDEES

Row | SMILES | IC50 [1] [nM] | Inhibition ratio (%) on B cell activation [2] [%] | Inhibition ratio (%) on B cell activation ([2]; listed as compound 2) [%] | concentration at 16 h [3] [ng/mL] | RLM, percentage of the remaining compound after 30 minutes of incubation [4] [%] | effect on paw volume ([5]; 0.25 mg/kg oral QD) | effect on paw volume ([5]; 4 mg/kg oral QD)
1 | C[C@@H]1CN(C2COC2)C[C@H](C)N1c1ccc(Nc2cc(-c3ccnc(-n4ccn5c6c(cc5c4=O)CC(C)(C)C6)c3CO)cn(C)c2=O)nc1 [Compound 2] | 6 | 43 | 43 | 6.6 ± 2.51 |  |  | 
2 | C[C@H]1CN(C2COC2)C[C@H](C)N1c1ccc(Nc2cc(-c3ccnc(-n4ncn5c6c(cc5c4=O)CC(C)(C)C6)c3CO)cn(C)c2=O)nc1 [Compound 4, 2-(5-((5-((2S,6S)-2,6-dimethyl-4-(oxetan-3-yl)piperazin-1-yl)pyridin-2-yl)amino)-3′-(hydroxymethyl)-1-methyl-6-oxo-1,6-dihydro-[3,4′-bipyridin]-2′-yl)-7,7-dimethyl-7,8-dihydro-2H-cyclopenta[4,5]pyrrolo[1,2-d][1,2,4]triazin-1(6H)-one] | 3 |  |  |  |  |  | 
3 | C[C@H]1CN(C2COC2)CCN1c1ccc(Nc2cc(-c3ccnc(N4CCn5c(cc6c5CC(C)(C)C6)C4=O)c3CO)cn(C)c2=O)nc1 [GDC-0853, fenebrutinib, reference compound] |  |  |  | 5.01 ± 2.26 | 81.0 | no improvement effect | significantly reduced
